Calls of active or inactive are those of the source. The rule behind the calls is not given here.
Legend:
[1] = molecular target: T1, DNA (cytosine-5)-methyltransferase 1 (Homo sapiens, UniProt P26358); experiment: Binding affinity to human DNMT1 expressed in Escherichia coli assessed as equilibrium dissociation constant by SPR analysis
[2] = molecular target: T1, DNA (cytosine-5)-methyltransferase 1; experiment: Binding affinity to human DNMT1 in presence of 10 uM SAM by SPR analysis
[3] = molecular target: T1, DNA (cytosine-5)-methyltransferase 1; experiment: Binding affinity to human DNMT1 expressed in Escherichia coli assessed as response unit at 10 uM by SPR analysis
[4] = molecular target: T1, DNA (cytosine-5)-methyltransferase 1; experiment: Inhibition of human DNMT1 at 500 uM relative to control
[5] = molecular target: T1, DNA (cytosine-5)-methyltransferase 1; experiment: Inhibition of DNMT1 (unknown origin) at 250 uM using semi-methylated DNA substrate preincubated for 15 mins followed by substrate and [3H-SAM] addition and measured after 60 mins by microbeta scintillation counting assay relative to control; conditions: time 75.0 min
A2780 [6] = experiment: Antiproliferative activity against human A2780 cells at 100 uM incubated for 48 hrs by MTT assay; type: functional
HeLa [7] = experiment: Antiproliferative activity against human HeLa cells at 100 uM incubated for 48 hrs by MTT assay; type: functional
K562 [8] = experiment: Antiproliferative activity against human K562 cells at 100 uM incubated for 48 hrs by MTT assay; type: functional
SiHa [9] = experiment: Antiproliferative activity against human SiHa cells at 100 uM incubated for 48 hrs by MTT assay; type: functional
[10] = molecular target: T1, DNA (cytosine-5)-methyltransferase 1; experiment: Inhibition of DNMT1 (unknown origin) using semi-methylated DNA substrate preincubated for 15 mins followed by substrate and [3H-SAM] addition and measured after 60 mins by microbeta scintillation counting assay
A2780 [11] = experiment: Antiproliferative activity against human A2780 cells incubated for 48 hrs by MTT assay; type: functional, cell-based; conditions: A2780, 48 h
HeLa [12] = experiment: Antiproliferative activity against human HeLa cells incubated for 48 hrs by MTT assay; type: functional, cell-based
K562 [13] = experiment: Antiproliferative activity against human K562 cells incubated for 48 hrs by MTT assay; type: functional, cell-based; conditions: K562, 48 h
SiHa [14] = experiment: Antiproliferative activity against human SiHa cells incubated for 48 hrs by MTT assay; type: functional, cell-based
K562 [15] = experiment: Upregulation of TRAIL-R2/Dr5 expression in human K562 cells; type: functional, cell-based
K562 [16] = experiment: Upregulation of TNFR-1 expression in human K562 cells; type: functional, cell-based
K562 [17] = experiment: Upregulation of CDKN1A/P21 expression in human K562 cells; type: functional, cell-based
K562 [18] = experiment: Induction of cell cycle arrest in human K562 cells assessed as G0-G1 phase cells at 20 uM incubated for 48 hrs by PI staining based flow cytometry assay (reference value: 33.58 to 35.82%); type: functional
K562 [19] = experiment: Induction of cell cycle arrest in human K562 cells assessed as S phase cells at 20 uM incubated for 48 hrs by PI staining based flow cytometry assay (reference value: 24.10 to 26.83%); type: functional
K562 [20] = experiment: Induction of cell cycle arrest in human K562 cells assessed as G2/M phase cells at 20 uM incubated for 48 hrs by PI staining based flow cytometry assay (reference value: 37.35 to 45.32%); type: functional
K562 [21] = experiment: Induction of cell cycle arrest in human K562 cells assessed as G0-G1 phase cells at 40 uM incubated for 48 hrs by PI staining based flow cytometry assay (reference value: 33.58 to 35.82%); type: functional
K562 [22] = experiment: Induction of cell cycle arrest in human K562 cells assessed as S phase cells at 40 uM incubated for 48 hrs by PI staining based flow cytometry assay (reference value: 24.10 to 26.83%); type: functional
K562 [23] = experiment: Induction of cell cycle arrest in human K562 cells assessed as G2/M phase cells at 40 uM incubated for 48 hrs by PI staining based flow cytometry assay (reference value: 37.35 to 45.32%); type: functional
K562 [24] = experiment: Induction of cell cycle arrest in human K562 cells assessed as G0-G1 phase cells at 60 uM incubated for 48 hrs by PI staining based flow cytometry assay (reference value: 33.58 to 35.82%); type: functional
K562 [25] = experiment: Induction of cell cycle arrest in human K562 cells assessed as S phase cells at 60 uM incubated for 48 hrs by PI staining based flow cytometry assay (reference value: 24.10 to 26.83%); type: functional
K562 [26] = experiment: Induction of cell cycle arrest in human K562 cells assessed as G2/M phase cells at 60 uM incubated for 48 hrs by PI staining based flow cytometry assay (reference value: 37.35 to 45.32%); type: functional
K562 [27] = experiment: Induction of apoptosis in human K562 cells assessed as viable cells at 20 uM incubated for 48 hrs by Annexin-V/PI staining based flow cytometry assay (reference value: 92.12%); type: functional; conditions: read-out: Activity
K562 [28] = experiment: Induction of apoptosis in human K562 cells assessed as early apoptotic cells at 20 uM incubated for 48 hrs by Annexin-V/PI staining based flow cytometry assay (reference value: 3.18%); type: functional
K562 [29] = experiment: Induction of apoptosis in human K562 cells assessed as late apoptotic cells at 20 uM incubated for 48 hrs by Annexin-V/PI staining based flow cytometry assay (reference value: 3.73%); type: functional
K562 [30] = experiment: Induction of apoptosis in human K562 cells assessed as necrotic cells at 20 uM incubated for 48 hrs by Annexin-V/PI staining based flow cytometry assay (reference value: 0.34%); type: functional
K562 [31] = experiment: Induction of apoptosis in human K562 cells assessed as viable cells at 40 uM incubated for 48 hrs by Annexin-V/PI staining based flow cytometry assay (reference value: 92.12%); type: functional; conditions: read-out: Activity
K562 [32] = experiment: Induction of apoptosis in human K562 cells assessed as early apoptotic cells at 40 uM incubated for 48 hrs by Annexin-V/PI staining based flow cytometry assay (reference value: 3.18%); type: functional
K562 [33] = experiment: Induction of apoptosis in human K562 cells assessed as late apoptotic cells at 40 uM incubated for 48 hrs by Annexin-V/PI staining based flow cytometry assay (reference value: 3.73%); type: functional
K562 [34] = experiment: Induction of apoptosis in human K562 cells assessed as necrotic cells at 40 uM incubated for 48 hrs by Annexin-V/PI staining based flow cytometry assay (reference value: 0.34%); type: functional
K562 [35] = experiment: Induction of apoptosis in human K562 cells assessed as viable cells at 60 uM incubated for 48 hrs by Annexin-V/PI staining based flow cytometry assay (reference value: 92.12%); type: functional; conditions: read-out: Activity
K562 [36] = experiment: Induction of apoptosis in human K562 cells assessed as early apoptotic cells at 60 uM incubated for 48 hrs by Annexin-V/PI staining based flow cytometry assay (reference value: 3.18%); type: functional
K562 [37] = experiment: Induction of apoptosis in human K562 cells assessed as late apoptotic cells at 60 uM incubated for 48 hrs by Annexin-V/PI staining based flow cytometry assay (reference value: 3.73%); type: functional
K562 [38] = experiment: Induction of apoptosis in human K562 cells assessed as necrotic cells at 60 uM incubated for 48 hrs by Annexin-V/PI staining based flow cytometry assay (reference value: 0.34%); type: functional
K562 [39] = experiment: Induction of apoptosis in human K562 cells assessed as viable cells at 10 uM incubated for 48 hrs by Annexin-V/PI staining based flow cytometry assay (reference value: 92.12%); type: functional; conditions: read-out: Activity
K562 [40] = experiment: Induction of apoptosis in human K562 cells assessed as early apoptotic cells at 10 uM incubated for 48 hrs by Annexin-V/PI staining based flow cytometry assay (reference value: 3.18%); type: functional
K562 [41] = experiment: Induction of apoptosis in human K562 cells assessed as late apoptotic cells at 10 uM incubated for 48 hrs by Annexin-V/PI staining based flow cytometry assay (reference value: 3.73%); type: functional
K562 [42] = experiment: Induction of apoptosis in human K562 cells assessed as necrotic cells at 10 uM incubated for 48 hrs by Annexin-V/PI staining based flow cytometry assay (reference value: 0.34%); type: functional
K562 [43] = experiment: Induction of cell cycle arrest in human K562 cells assessed as G0-G1 phase cells at 10 uM incubated for 48 hrs by PI staining based flow cytometry assay (reference value: 33.58 to 35.82%); type: functional
K562 [44] = experiment: Induction of cell cycle arrest in human K562 cells assessed as S phase cells at 10 uM incubated for 48 hrs by PI staining based flow cytometry assay (reference value: 24.10 to 26.83%); type: functional
K562 [45] = experiment: Induction of cell cycle arrest in human K562 cells assessed as G2/M phase cells at 10 uM incubated for 48 hrs by PI staining based flow cytometry assay (reference value: 37.35 to 45.32%); type: functional

T1 sequence (P26358 whole entry): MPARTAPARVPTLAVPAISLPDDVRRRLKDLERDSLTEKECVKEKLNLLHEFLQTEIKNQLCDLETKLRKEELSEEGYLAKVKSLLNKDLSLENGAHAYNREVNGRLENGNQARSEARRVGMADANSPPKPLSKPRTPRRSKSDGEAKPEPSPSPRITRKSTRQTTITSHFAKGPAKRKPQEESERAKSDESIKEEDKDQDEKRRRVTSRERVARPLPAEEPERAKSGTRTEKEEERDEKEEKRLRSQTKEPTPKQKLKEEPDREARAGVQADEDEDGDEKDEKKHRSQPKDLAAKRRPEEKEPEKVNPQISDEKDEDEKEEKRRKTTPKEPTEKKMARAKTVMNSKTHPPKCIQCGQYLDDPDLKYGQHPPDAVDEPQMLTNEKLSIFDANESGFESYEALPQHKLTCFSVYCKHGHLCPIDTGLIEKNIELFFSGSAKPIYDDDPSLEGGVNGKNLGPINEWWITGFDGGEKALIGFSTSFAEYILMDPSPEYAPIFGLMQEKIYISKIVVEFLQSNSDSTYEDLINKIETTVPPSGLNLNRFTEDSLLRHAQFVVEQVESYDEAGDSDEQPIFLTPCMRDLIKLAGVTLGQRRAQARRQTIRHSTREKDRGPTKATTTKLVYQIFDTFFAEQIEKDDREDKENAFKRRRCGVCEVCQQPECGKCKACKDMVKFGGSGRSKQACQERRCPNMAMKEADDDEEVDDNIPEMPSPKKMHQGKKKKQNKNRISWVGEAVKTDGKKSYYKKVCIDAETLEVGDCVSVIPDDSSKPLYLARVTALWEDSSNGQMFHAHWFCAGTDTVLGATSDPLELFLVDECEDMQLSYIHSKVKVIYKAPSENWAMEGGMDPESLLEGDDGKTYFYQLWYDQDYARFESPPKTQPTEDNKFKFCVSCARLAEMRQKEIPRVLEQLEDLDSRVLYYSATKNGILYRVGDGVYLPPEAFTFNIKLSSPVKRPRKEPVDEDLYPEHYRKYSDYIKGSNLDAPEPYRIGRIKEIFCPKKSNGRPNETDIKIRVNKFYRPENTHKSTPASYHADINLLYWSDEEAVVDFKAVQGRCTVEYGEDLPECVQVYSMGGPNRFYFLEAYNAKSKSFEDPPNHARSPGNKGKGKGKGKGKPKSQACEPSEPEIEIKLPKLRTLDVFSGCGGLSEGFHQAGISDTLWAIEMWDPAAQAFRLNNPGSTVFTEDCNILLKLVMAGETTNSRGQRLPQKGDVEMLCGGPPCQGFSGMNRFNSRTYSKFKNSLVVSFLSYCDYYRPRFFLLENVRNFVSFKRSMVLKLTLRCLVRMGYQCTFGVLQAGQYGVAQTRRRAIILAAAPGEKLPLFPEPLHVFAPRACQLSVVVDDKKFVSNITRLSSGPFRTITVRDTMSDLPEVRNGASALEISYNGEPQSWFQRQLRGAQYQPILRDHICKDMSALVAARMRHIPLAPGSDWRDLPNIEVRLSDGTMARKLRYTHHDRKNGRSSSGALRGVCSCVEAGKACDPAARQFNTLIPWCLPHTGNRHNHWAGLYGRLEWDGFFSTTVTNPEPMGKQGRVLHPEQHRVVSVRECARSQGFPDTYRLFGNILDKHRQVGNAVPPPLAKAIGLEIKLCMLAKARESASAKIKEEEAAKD

O=C(O)C(Cn1c2ccc(Br)cc2c2cc(Br)ccc21)N1C(=O)c2ccccc2C1=O (racemic)
Kd [1]: 1.16 µM
Kd [2]: 4.09 µM

O=C(O)C(Cn1c2ccccc2c2ccccc21)N1C(=O)c2ccccc2C1=O (racemic)
Activity [3]: 25.1 RU
inhibition [4]: < 10%
inhibition [5]: < 50%
Activity (A2780 [6]): <5%
Activity (HeLa [7]): <5%
Activity (K562 [8]): <5%
Activity (SiHa [9]): <5%

O=C(O)C(Cn1c2ccc(I)cc2c2cc(I)ccc21)N1C(=O)c2ccccc2C1=O (racemic)
Kd [1]: 0.145 µM

O=C(O)C(Cn1c2ccc(I)cc2c2cc(I)ccc21)N1C(=O)c2ccccc2C1=O (stereo in doubt; 7o-2)
IC50 [10]: 43 µM

O=C(O)C(Cn1c2ccc(Cl)cc2c2cc(Cl)ccc21)N1C(=O)c2ccccc2C1=O (racemic)
Activity [3]: Active
inhibition [5]: > 75%

O=C(O)C(Cn1c2ccc(Br)cc2c2cc(Br)ccc21)N1C(=O)c2ccccc2C1=O (stereo in doubt; 7n-2)
IC50 [10]: 38.2 µM

O=C(O)[C@H](Cn1c2ccc(Cl)cc2c2cc(Cl)cc(Cl)c21)N1C(=O)c2ccccc2C1=O
Kd [1]: 0.183 µM
IC50 [10]: 40 µM
IC50 (A2780 [11]): 78.9 µM
IC50 (HeLa [12]): 96.8 µM
IC50 (K562 [13]): 43.9 µM
IC50 (SiHa [14]): 58.6 µM
Activity (K562 [15]): Active
Activity (K562 [16]): Active
Activity (K562 [17]): Active
Activity (K562 [18]): 35.18%
Activity (K562 [19]): 24.1%
Activity (K562 [20]): 33%
Activity (K562 [21]): 50.95%
Activity (K562 [22]): 21.62%
Activity (K562 [23]): 27.43%
Activity (K562 [24]): 61.74%
Activity (K562 [25]): 17.4%
Activity (K562 [26]): 20.78%
viability at 20 µM (K562 [27]): 92.9%
Activity (K562 [28]): 3.9%
Activity (K562 [29]): 3.16%
Activity (K562 [30]): 0.04%
viability at 40 µM (K562 [31]): 93.7%
Activity (K562 [32]): 1.75%
Activity (K562 [33]): 4.25%
Activity (K562 [34]): 0.29%
viability at 60 µM (K562 [35]): 16.7%
Activity (K562 [36]): 4.28%
Activity (K562 [37]): 27.24%
Activity (K562 [38]): 1.74%

CC(C)(C)c1ccc2c(c1)c1cc(C(C)(C)C)ccc1n2C[C@@H](C(=O)O)N1C(=O)c2ccccc2C1=O
Kd [1]: 0.679 µM
IC50 [10]: 8.15 µM
IC50 (A2780 [11]): 32.9 µM
IC50 (HeLa [12]): 66.9 µM
IC50 (K562 [13]): 15.8 µM
IC50 (SiHa [14]): 25.6 µM
Activity (K562 [15]): Active
Activity (K562 [16]): Active
Activity (K562 [17]): Active
viability at 10 µM (K562 [39]): 86.2%
Activity (K562 [40]): 1.39%
Activity (K562 [41]): 2.07%
Activity (K562 [42]): 0.37%
Activity (K562 [43]): 34.61%
Activity (K562 [44]): 26.12%
Activity (K562 [45]): 38.67%
Activity (K562 [18]): 54.77%
Activity (K562 [19]): 21.5%
Activity (K562 [20]): 23.67%
Activity (K562 [21]): 61.14%
Activity (K562 [22]): 22.3%
Activity (K562 [23]): 16.56%
viability at 20 µM (K562 [27]): 90.2%
Activity (K562 [28]): 2.78%
Activity (K562 [29]): 6.5%
Activity (K562 [30]): 0.56%
viability at 40 µM (K562 [31]): 3.07%
Activity (K562 [32]): 1.36%
Activity (K562 [33]): 94.09%
Activity (K562 [34]): 1.47%

CC(C)(C)c1ccc2c(c1)c1cc(C(C)(C)C)ccc1n2C[C@H](C(=O)O)N1C(=O)c2ccccc2C1=O
Kd [1]: 0.666 µM
IC50 [10]: 17.3 µM
IC50 (A2780 [11]): 34.6 µM
IC50 (HeLa [12]): 59.9 µM
IC50 (K562 [13]): 17 µM
IC50 (SiHa [14]): 54.9 µM
